This is an account of results in EP1431280A1, “ARYL SULFAMATE DERIVATIVES” (Kyowa Hakko Kogyo Co., Ltd, priority 2001, dated 2003).

For this assay, the target named is T1, recombinant human estrone sulfatase (Homo sapiens, UniProt P08842).
T1 construct: made in house; host or cells: Chinese Hamster Ovary (CHO) cells
T1 sequence (P08842 22-583): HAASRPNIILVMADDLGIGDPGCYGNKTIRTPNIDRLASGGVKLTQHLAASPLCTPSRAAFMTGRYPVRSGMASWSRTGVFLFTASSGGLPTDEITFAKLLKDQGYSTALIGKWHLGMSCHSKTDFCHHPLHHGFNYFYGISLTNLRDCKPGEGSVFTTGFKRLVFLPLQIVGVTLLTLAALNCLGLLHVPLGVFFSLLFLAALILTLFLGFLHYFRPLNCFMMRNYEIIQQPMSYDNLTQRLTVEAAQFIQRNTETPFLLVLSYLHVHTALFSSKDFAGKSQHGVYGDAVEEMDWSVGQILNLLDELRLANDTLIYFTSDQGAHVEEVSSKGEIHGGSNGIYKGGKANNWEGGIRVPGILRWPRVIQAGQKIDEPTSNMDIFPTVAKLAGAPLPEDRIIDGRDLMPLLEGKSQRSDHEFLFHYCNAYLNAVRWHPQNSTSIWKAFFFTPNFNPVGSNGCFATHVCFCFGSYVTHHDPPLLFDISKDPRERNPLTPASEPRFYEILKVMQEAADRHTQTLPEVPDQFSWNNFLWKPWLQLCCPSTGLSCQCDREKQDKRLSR
Nature of the assay: Test for inhibition of estrone sulfatase (steroid sulfatase). The format is biochemical. As to conditions: 4-methylumbelliferyl sulfate 0.3 mmol/L, phosphate buffer pH 7.5, 37 °C, 1 hour, fluorescence of 4-methylumbelliferone; read-out: IC50, inhibitory activity against steroid sulfatase. Here is the method:
4-Methylumbelliferyl sulfate (final concentration 0.3 mmol/L), recombinant human estrone sulfatase (7.8 ng/well), and each solution of the test compound having each test concentrations (test compound was dissolved in 0.001 mL of DMSO) were added to a phosphate buffer (pH 7.5) (final volume 0.1 mL) containing 0.28 mol/L sucrose and 0.04 mol/L nicotinamide. An enzyme reaction was conducted at 37 °C for 1 hour. The human estrone sulfatase gene was introduced into Chinese Hamster Ovary (CHO) cells, and the recombinant human estrone sulfatase was expressed, then it was used after partial purification. After completing the enzyme reaction, 2 mol/L glycine-sodium hydroxide solution (pH 10.3) (0.13 mL) was added and stirred. Using a fluorescent plate reader (Cyto Fluor II), the fluorescent strength of the generated 4-methylumbelliferone was measured. The measurements were conducted in duplicate at the same time. The fluctuations within the assay were within 10%. An enzyme reaction without the presence of a test compound was conducted at the same time. The inhibitory activity against estrone sulfatase for each concentration of the test compounds was calculated using the following equation. • A: Amount of 4-methylumbelliferone when test compound is present • B: Amount of 4-methylumbelliferone when test compound is not present [formula]
The inhibitory activity against estrone sulfatase of the aryl sulfamate derivative can be expressed as the concentration (IC50) of aryl sulfamate derivative at which the estrone sulfatase activity in the presence of the aryl sulfamate derivative is half of that when no test compound is added.

The term IC50 denotes the concentration at which inhibition is half-maximal. As to `CCCCCCCCCNC(=O)CC(=O)c1ccc(OS(N)(=O)=O)cc1` [Compound 58], the IC50 was 31 nM.

With `CCCCCCCCCNC(=O)C(C#N)=C(CF)c1ccc(OS(N)(=O)=O)cc1` [Compound 19], the half-inhibitory concentration (IC50) came out at 35 nM.

In the case of `CCCCCCCCNC(=O)/C(C#N)=C(\C)c1ccc(OS(N)(=O)=O)cc1` [Compound 15], the IC50 is less than 12 nM.

Turning to `CCCCCCCNC(=O)C(C#N)=C(C)c1ccc(OS(N)(=O)=O)cc1` [Compound 16], the IC50 was less than 12 nM.

In the case of `CCCCCCCCCNC(=O)C(C#N)=C(O)c1ccc(OS(N)(=O)=O)cc1` [Compound 22], the IC50 is less than 12 nM.

Turning to `CCCCCCCCCNC(=O)C(C#N)=Cc1ccc(OS(N)(=O)=O)cc1` [Compound 5], the IC50 was 14 nM.

`CCCCCCCCCNC(=O)C=C(C#N)c1ccc(OS(N)(=O)=O)cc1` [Compound 47]: the IC50 amounted to 44 nM.

Take `CCCCCCCNC(=O)C(C#N)=Cc1ccc(OS(N)(=O)=O)cc1` [Compound 6]: the IC50 is 12 nM.

As to `CCCCCCCCCNC(=O)C(C#N)=C(CC)c1ccc(OS(N)(=O)=O)cc1` [Compound 17], the 50% inhibitory concentration (IC50) came to 17 nM.

On to `CCCCCCCCCNC(=O)C#Cc1ccc(OS(N)(=O)=O)cc1` [Compound 57], for which the IC50 came out at 99 nM.
